Values quoted from earlier work in US20080139510A1, “Treatment of migraine headaches with sublingual amino acids” (priority 2006, published 2008).

Test system: migraine attack
Conditions: oral administration, tablet or capsule

N[C@@H](Cc1c[nH]c2ccc(O)cc12)C(=O)O [5-HTP, 5-hydroxytryptophan]
aborting or significantly mitigating pain after onset of migraine attack: ineffective
